Source: ChEMBL document CHEMBL2401680, “A highly catalytically active γ-carbonic anhydrase from the pathogenic anaerobe Porphyromonas gingivalis and its inhibition profile with anions and small molecules” (Bioorg Med Chem Lett, 2013)
pKi: −log10 of the molar value.

Experiments:
[1] = Inhibition of Porphyromonas gingivalis recombinant CA by CO2 hydration assay
[2] = biological target: T1, Carbonic anhydrase (Methanosarcina thermophila, UniProt P40881); test: Inhibition of Methanosarcina thermophila recombinant gamma-CA by CO2 hydration assay
T1 sequence (P40881 whole entry): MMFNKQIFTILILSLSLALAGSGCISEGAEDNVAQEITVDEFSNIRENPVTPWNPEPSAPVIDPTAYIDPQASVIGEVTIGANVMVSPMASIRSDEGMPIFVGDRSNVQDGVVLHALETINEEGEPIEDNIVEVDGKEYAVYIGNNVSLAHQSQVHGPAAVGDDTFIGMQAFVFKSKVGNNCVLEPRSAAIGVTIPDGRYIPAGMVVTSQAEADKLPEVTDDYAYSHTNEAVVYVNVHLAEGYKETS

| SMILES | pKi [1] | pKi [2] |
| --- | --- | --- |
| O=[Te](=O)(O)O [SODIUM TELLURATE] | 1.78 |  |
| S=C(S)S [SODIUM CARBONOTRITHIOATE] | 4.01 |  |
| S [SODIUM HYDROSULFIDE] | 4.04 |  |
| O=NO [SODIUM NITRITE] | 2.51 |  |
| [Cl-].[Na+] [SODIUM CHLORIDE] | 3.03 | < 0.70 |
| O=BOB(O)OB(O)OB=O [SODIUM TETRABORATE] | 1.15 |  |
| F[B-](F)(F)F.[Na+] [SODIUM TETRAFLUOROBORATE] | < 0.70 |  |
| NS(=O)(=O)O [SULFAMATE] | 4.03 |  |
| OB(O)c1ccccc1 [PHENYLBORONIC ACID] | 5.01 |  |
| O=[Se](=O)(O)O [SODIUM SELENATE] | 1.07 |  |
| O=S([O-])O.[Na+] [SODIUM BISULFITE] | 2.03 | 1.93 |
| O=C([O-])[O-].[Na+].[Na+] [SODIUM CARBONATE] | 3.05 | 2.17 |
| N=C=S [SODIUM ISOTHIOCYANATE] | 4.03 | 2.15 |
| O=S(=O)([O-])[O-].[Na+].[Na+] [SODIUM SULFATE ANHYDROUS] | 2.06 | < 0.70 |
| [Br-].[Na+] [SODIUM BROMIDE] | 3.04 | 1.22 |
| NS(N)(=O)=O [SULFAMIDE] | 5.04 |  |
| [I-].[Na+] [SODIUM IODIDE] | 2.06 | 0.80 |
| CCN(CC)C(=S)S [DITIOCARB SODIUM] | 5.40 |  |
| O=C([O-])O.[Na+] [SODIUM BICARBONATE] | 3.02 | 1.38 |
| [F-].[Na+] [SODIUM FLUORIDE] | 3.02 |  |
| O=S(=O)(O)ONOS(=O)(=O)O [SODIUM IMINODISULFATE] | 2.11 |  |
| O=[As](O)(O)c1ccccc1 [PHENYLARSONIC ACID] | 4.05 |  |
| O=[N+]([O-])[O-].[Na+] [SODIUM NITRATE] | 2.07 | 1.44 |
| [N-]=[N+]=[N-] [SODIUM AZIDE] | 4.14 |  |
| N=C=[Se] [SODIUM ISOSELENOCYANATE] | 3.04 |  |
| O=S(=O)(O)OOS(=O)(=O)O [SODIUM PERSULFATE] | 2.06 |  |
| [O-][Cl+3]([O-])([O-])O [SODIUM PERCHLORATE] | < 0.70 |  |
